Tests used:
[1] = biological target: T1, Vitamin D3 receptor (Sus scrofa) (UniProt A3RGC1); test: (§1) Affinity for porcine Vitamin D3 receptor; set-up: reference not given here
T1 sequence (whole entry): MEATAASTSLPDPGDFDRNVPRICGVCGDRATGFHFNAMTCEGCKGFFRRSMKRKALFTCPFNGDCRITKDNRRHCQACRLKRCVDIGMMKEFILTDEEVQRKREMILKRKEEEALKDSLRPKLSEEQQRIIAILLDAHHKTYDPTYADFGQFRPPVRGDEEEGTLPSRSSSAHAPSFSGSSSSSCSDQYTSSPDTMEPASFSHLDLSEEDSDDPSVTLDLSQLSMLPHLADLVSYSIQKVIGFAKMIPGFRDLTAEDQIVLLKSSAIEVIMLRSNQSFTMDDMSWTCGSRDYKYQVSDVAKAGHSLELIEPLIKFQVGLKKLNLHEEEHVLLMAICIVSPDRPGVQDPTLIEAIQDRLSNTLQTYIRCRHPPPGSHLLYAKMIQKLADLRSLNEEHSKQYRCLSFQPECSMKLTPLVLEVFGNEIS

[2] = Gene transcriptional activity against osteopontin (OPN); assay type: functional
[3] = test system: Rattus norvegicus; test: In vivo calcemic activity expressed as relative activity for Intestinal calcium transport (ICA) in vitamin D deficient rats
[4] = biological target: T2, Vitamin D3 receptor (Bos taurus) (UniProt Q28037); test: Affinity for bovine Vitamin D3 receptor; set-up: reference not given here
T2 sequence (whole entry): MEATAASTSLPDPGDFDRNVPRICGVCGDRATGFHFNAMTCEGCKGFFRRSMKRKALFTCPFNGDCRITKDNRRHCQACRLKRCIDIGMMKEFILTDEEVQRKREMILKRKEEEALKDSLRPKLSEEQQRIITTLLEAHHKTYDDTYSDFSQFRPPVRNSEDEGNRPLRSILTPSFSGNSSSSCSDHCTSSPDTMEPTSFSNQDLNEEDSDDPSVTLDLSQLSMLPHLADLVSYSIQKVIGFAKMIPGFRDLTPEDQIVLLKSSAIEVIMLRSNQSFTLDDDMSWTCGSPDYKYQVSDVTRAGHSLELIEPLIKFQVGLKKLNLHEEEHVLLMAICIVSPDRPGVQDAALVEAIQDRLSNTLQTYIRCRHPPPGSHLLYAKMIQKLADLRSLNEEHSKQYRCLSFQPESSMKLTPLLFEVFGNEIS

[5] = test system: HL-60; test: In vitro activity expressed as relative activity to induce the differentiation of human promyelocytic leukemia (HL-60) cells by NBT reduction assay
[6] = test system: Rattus norvegicus; test: In vivo calcemic activity expressed as relative activity for Bone calcium mobilization (BCM) in vitamin D deficient rats
[7] = biological target: T3, Vitamin D-binding protein (Rattus norvegicus) (UniProt P04276); test: Binding affinity for rat Vitamin D binding protein; set-up: reference not given here
T3 sequence (whole entry): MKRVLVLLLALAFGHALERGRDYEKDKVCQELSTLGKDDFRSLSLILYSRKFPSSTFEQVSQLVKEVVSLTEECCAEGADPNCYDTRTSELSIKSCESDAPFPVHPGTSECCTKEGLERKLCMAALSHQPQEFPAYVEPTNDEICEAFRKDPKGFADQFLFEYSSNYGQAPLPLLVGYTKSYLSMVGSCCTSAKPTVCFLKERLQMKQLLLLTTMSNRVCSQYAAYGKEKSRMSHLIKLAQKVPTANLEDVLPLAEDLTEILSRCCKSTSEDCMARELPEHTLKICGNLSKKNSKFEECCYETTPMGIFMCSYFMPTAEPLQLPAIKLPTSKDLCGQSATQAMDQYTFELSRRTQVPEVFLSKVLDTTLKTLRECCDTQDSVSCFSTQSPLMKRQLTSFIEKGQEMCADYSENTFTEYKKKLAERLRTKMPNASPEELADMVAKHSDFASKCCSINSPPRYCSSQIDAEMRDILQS

[8] = test system: Keratinocyte cell line; test: In vitro activity expressed as relative activity to inhibit the proliferation of primary cultures of human foreskin keratinocytes by measuring [3H]thymidine incorporation
[9] = test system: MCF7; test: In vitro activity expressed as relative activity to inhibit the proliferation of human breast cancer cells (MCF-7) by measuring [3H]thymidine incorporation
[10] = test system: MCF7; test: as above; remark: listed apart in the source
[11] = test system: Keratinocyte cell line; test: In vitro activity expressed as relative activity to inhibit the proliferation of primary cultures of human foreskin keratinocytes by measuring [3H]thymidine incorporation; remark: listed apart in the source
[12] = biological target: T1, Vitamin D3 receptor (Sus scrofa); test: as §1

| Activity [1] | Activity [4] | Activity [7] | Activity [12] | Structure (SMILES) | relative activity [2] | relative activity [3] | relative activity [5] | relative activity [6] | relative activity [8] | relative activity [9] | relative activity [10] | relative activity [11] |
| --- | --- | --- | --- | --- | --- | --- | --- | --- | --- | --- | --- | --- |
| 33 | 33 | 67 |  | C=C1/C(=C\C=C2/CCC[C@]3(C)[C@@H]([C@H](C)[C@@H](C)CCC(C)(C)O)CC[C@@H]23)C[C@@H](O)C[C@@H]1O | 22% | 50% | 100% | 26% |  |  |  |  |
| 2000 | 1100 | < 0.25 |  | C=C1/C(=C\C=C2/CCC[C@]3(C)[C@@H]([C@@H](C)[C@H](C)CCC(C)(C)O)CC[C@@H]23)C[C@@H](O)C[C@@H]1O | 10000% | 51% | 12000% | 220% | 9000% | 15000% |  |  |
| 1 | 0.4 | < 0.25 |  | C=C1/C(=C\C=C2/CCC[C@]3(C)[C@@H]([C@@H](C)[C@@H](C)CCC(C)(C)O)CC[C@@H]23)C[C@@H](O)C[C@@H]1O | 3% | < 1% | 8% | 5% | 60% |  | 70% |  |
| 100 | 100 | 100 |  | C=C1/C(=C\C=C2/CCC[C@]3(C)[C@@H]([C@H](C)CCCC(C)(C)O)CC[C@@H]23)C[C@@H](O)C[C@@H]1O [CALCITRIOL] | 100% | 100% | 100% | 100% |  |  | 100% | 100% |
|  |  | 4000 | 500 | C=C1/C(=C\C=C2/CCC[C@]3(C)[C@@H]([C@@H](C)CCCC(C)(C)O)CC[C@@H]23)C[C@@H](O)C[C@@H]1O |  |  |  |  |  |  |  |  |
| 1.7 | 2 | 0.45 |  | C=C1/C(=C\C=C2/CCC[C@]3(C)[C@@H]([C@H](C)[C@H](C)CCC(C)(C)O)CC[C@@H]23)C[C@@H](O)C[C@@H]1O | 1% | 25% | 1.3% | 32% |  |  |  |  |

Reference: ChEMBL document CHEMBL1132088, “Three-dimensional structure-function relationship of vitamin D: side chain location and various activities” (1999)
